Read-outs that look alike come from different tables or passages of the source.
What was measured:
[1] = molecular target: T1, interaction between ICAM-1 and LFA-1 (Homo sapiens, UniProt P05107+P20701); experiment: Adhesion of JY cells to TNF-α stimulated human endothelial cells (JY-EC); assay type: cell-based; conditions: for IC50: JY cells on TNF-α stimulated human endothelial cells, 30 minutes at 37° C., read-out: JY-EC IC50 (concentration at which adhesion is inhibited to 50% of control level)
T1 construct: endogenous in cells; host or cells: JY (human B cell line) for LFA-1; TNF-alpha stimulated HUVEC (Clonetics) for ICAM-1
T1 sequence (P20701 26-1170): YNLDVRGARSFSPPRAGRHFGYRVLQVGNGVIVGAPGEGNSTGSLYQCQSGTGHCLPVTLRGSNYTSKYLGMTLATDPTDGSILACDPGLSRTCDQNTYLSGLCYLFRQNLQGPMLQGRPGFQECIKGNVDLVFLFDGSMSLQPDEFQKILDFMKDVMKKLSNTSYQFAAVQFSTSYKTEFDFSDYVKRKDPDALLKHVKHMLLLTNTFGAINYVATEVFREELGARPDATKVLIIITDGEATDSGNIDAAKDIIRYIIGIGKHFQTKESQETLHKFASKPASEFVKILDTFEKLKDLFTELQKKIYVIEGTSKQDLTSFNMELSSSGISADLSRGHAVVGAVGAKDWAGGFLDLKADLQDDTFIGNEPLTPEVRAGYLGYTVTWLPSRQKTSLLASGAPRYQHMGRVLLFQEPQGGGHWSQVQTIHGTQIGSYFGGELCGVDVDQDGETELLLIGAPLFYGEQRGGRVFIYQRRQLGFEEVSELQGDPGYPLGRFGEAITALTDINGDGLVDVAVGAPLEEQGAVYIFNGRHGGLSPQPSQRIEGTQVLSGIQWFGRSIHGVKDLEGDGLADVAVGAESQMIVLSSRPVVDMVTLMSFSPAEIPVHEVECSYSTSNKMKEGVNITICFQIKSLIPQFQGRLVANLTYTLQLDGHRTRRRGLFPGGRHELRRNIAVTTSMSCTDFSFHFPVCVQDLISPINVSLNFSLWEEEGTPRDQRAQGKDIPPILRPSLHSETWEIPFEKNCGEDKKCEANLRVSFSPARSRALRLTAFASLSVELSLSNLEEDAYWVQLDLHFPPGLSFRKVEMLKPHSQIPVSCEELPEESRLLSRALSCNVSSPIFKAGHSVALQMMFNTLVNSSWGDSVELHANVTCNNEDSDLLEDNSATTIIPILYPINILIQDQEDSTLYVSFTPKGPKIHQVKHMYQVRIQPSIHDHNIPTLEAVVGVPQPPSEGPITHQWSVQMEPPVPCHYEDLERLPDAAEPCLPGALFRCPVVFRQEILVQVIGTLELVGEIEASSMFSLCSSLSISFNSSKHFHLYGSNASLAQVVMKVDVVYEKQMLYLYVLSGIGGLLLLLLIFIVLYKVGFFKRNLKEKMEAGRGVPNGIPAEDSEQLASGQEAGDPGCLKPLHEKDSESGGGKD
T1 sequence (P05107 23-769): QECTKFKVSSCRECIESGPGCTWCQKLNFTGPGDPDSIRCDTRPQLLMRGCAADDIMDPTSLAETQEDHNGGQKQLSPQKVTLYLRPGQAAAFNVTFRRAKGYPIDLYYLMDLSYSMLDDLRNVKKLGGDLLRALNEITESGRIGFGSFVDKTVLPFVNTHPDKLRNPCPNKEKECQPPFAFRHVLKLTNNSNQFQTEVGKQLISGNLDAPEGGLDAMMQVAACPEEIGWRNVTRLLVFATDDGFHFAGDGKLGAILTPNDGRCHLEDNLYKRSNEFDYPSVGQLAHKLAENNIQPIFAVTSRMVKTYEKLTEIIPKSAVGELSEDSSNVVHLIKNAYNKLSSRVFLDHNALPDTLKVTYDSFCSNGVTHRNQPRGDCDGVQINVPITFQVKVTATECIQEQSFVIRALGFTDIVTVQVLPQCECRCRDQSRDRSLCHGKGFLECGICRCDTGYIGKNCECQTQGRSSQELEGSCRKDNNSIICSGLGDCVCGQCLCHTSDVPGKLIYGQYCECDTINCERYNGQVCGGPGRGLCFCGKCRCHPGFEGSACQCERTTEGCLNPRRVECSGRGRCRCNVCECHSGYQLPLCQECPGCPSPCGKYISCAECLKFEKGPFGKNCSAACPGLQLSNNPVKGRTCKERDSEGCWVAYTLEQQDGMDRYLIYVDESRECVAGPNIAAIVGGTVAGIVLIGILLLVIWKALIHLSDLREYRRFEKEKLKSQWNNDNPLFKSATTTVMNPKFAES
From the text: In order to establish the pharmacological properties of the compounds of formula (I) as a method of treatment for immuno-inflammatory disease in a patient suffering therefrom--such diseases being for the most part, but not limited exclusively to, graft rejection, ischemia reperfusion, asthma/allergy, delayed type hypersensitivity and AIDS--an in vitro assay was used to determine the effect of the compounds of the present invention on β2 mediated adhesion. Because human endothelial cells (EC's) express low levels of ICAM-1 on their surface and stimulation with TNF-α increases its expression, adhesion of lymphocytes can be measured following the principal assay design as described below for the human B cell line JY.
A. Cell Adhesion to Stimulated Endothelial Cells
Human umbilical vein endothelial cells (HUVEC) were purchased from Clonetics (San Diego, Calif.) at passage number 2. The cells were growth on 0.5% porcine skin gelatin pre-coated flasks (Sigma, St. Louis, Mo.) in EGM-UV media (Clonetics, San Diego, Calif.) supplemented with 10% fetal bovine serum. Cells are re-fed every 2-3 days, reaching confluence by day 4 to 6. […] The endothelial cells are not used following passage 7. Endothelial cells are grown to confluency in 96-well micro-titer assay plate.
The human B cell line JY was cultured in RPMI media containing 10% fetal calf serum at 37° C. in a humidified CO2 atmosphere. JY cells are loaded with the fluorescent dye indicator BCECF as follows: JY cells are washed twice with HBSS and cells are then re-suspended in HBSS at 5×10^6 cells/ml; BCECF-AM (Molecular Probes), stock concentration=1 mg/ml in DMSO, is added to the JY cells to a final concentration of 2 μg/ml; cells are incubated in the dark at 37° C. for 30-45 minutes; washed twice with HBSS and used in the assay.
The compounds presented in this invention are typically dissolved in 2.5 mg HSA/ml DME at four times the assay concentration and pH adjusted with 7.5% Na bicarbonate as needed. A confluent monolayer of human EC's in microtiter plates is stimulated with 50 U/ml TNF-α for 20 hours, and on the next day washed twice with DMEM-HSA before use. The EC's may be fixed by treatment with 3% paraformaldehyde. The assay plate is placed on ice, and test compound is added to quadruplicate wells, then all wells received 2.5×10^5 labeled JY cells and an optional stimulus (e.g. phorbol ester). Plates are incubated for 30 minutes at 37° C. in a CO2 incubator. Plates are washed four times with 100 μl PBS/well and the fluorescence of the adherent cells is measured using a fluorescence reader. Fluorescence in each well is measured as Arbitrary Fluorescence Units and percent adhesion in the absence of peptide is adjusted to 100% and the percent adhesion in the presence of peptides is calculated. Inhibitory concentrations (IC50) are determined based on 100% adhesion of cells that were incubated in the absence of drugs. Stimulation of protein kinase C by phorbol esters such as […] (PMA) increases the observed adhesion approximately 5-fold. This PMA induced adhesion is 100% blocked by anti-LFA-1 or anti-CD18 antibodies and about 75-80% by anti-ICAM-1 antibodies, while it is unaffected by antibodies to Mac-1, α4 or control antibodies. Thus, this assay measures preferentially the interaction between ICAM-1 and LFA-1.

U937 cells = assay type: cell-based
From the text: (§1) The activity in the assay was not due to cytotoxic activity of the compounds.

JY cells = experiment: Proliferation of JY cells (cytotoxicity evaluation); assay type: cell-based, human
From the text: as §1

rhinovirus = conditions: Martin, S. D. et al.; cited from earlier work

Molecule: CCCCCCCCCCCCCC(=O)O[C@@H]1[C@@H](C)[C@@]2(O)[C@@H](C=C(CO)C[C@]3(O)C(=O)C(C)=C[C@@H]23)[C@@H]2C(C)(C)[C@]12OC(C)=O [13,14-phorbol myristate acetate (PMA), 13,14-phorbol myristate acetate, reference compound]
- increase of observed adhesion ([1]; stimulation of protein kinase C by PMA): approximately 5 fold

Molecule: Nc1cccc2cc(S(=O)(=O)N3CC4CCC(CC4)C3)ccc12 [Example 35, 3-(5-Amino-2-naphthylsulfonyl)-3-azabicyclo[3.2.2]nonane]
- IC50 [1]: 13.6 µM

Molecule: O=S(=O)(c1ccc2ncccc2c1)N1CC2CCC(CC2)C1 [Example 29, 3-(6-Quinolinesulfonyl)-3-azabicyclo[3.2.2]nonane]
- IC50 [1]: 8 µM

Molecule: COc1ccc(S(=O)(=O)N2CC3CCC(CC3)C2)c2ccccc12 [Example 44, 3-(4-Methoxy-1-naphthylsulfonyl)-3-azabicyclo[3.2.2]nonane]
- IC50 [1]: 1.6 µM

Molecule: O=S(=O)(c1ccc2c(Cl)cccc2c1)N1CC2CCC(CC2)C1 [Example 5, 3-(5-Chloro-2-naphthylsulfonyl)-3-azabicyclo[3.2.2]nonane]
- IC50 [1]: 0.5 µM
- inhibition of proliferation of U937 cells (U937 cells): did not inhibit the proliferation of JY cells or U937 cells
- inhibition of proliferation of JY cells (JY cells): did not inhibit the proliferation of JY cells

Molecule: O=S(=O)(c1ccc2c(Cl)cccc2c1)N1CC2CC3CC(C2)CC1C3 [Example 18, 4-(5-Chloro-2-naphthylsulfonyl)-4-azahomoadamantane]
- IC50 [1]: 0.25 µM

Molecule: O=S(=O)(c1ccc2c(Cl)cccc2c1)N1CC2CCC(C2)C1 [Example 17, 3-(5-Chloro-2-naphthylsulfonyl)-3-azabicyclo[3.2.1]-octane]
- IC50 [1]: 15 µM

Molecule: CC(=O)Oc1cccc2cc(S(=O)(=O)NC34CC5CC(CC(C5)C3)C4)ccc12 [Example 15, 1-(5-Acetoxy-2-naphthylsulfonyl)-1-aminoadamantane]
- IC50 [1]: 56 µM

Molecule: O=S(=O)(c1cc(OCc2cccnc2)c2ccccc2c1)N1CC2CC3CC(C2)CC1C3 [Example 55, 4-[1-(3-Pyridinylmethoxy)-3-naphthylsulfonyl]-4-azahomoadamantane]
- IC50 [1]: 2.1 µM

Molecule: O=S(=O)(c1ccc2ncccc2c1)N1CC2CC3CC(C2)CC1C3 [Example 31, 4-(6-Quinolinesulfonyl)-4-azahomoadamantane]
- IC50 [1]: 5 µM

Molecule: O=S(=O)(NC12CC3CC(CC(C3)C1)C2)c1ccc2c(Cl)cccc2c1 [Example 3, 1-(5-Chloro-2-naphthylsulfonyl)-1-aminoadamantane]
- IC50 [1]: 3 µM
- inhibition of proliferation of U937 cells (U937 cells): did not inhibit the proliferation of JY cells or U937 cells
- inhibition of proliferation of JY cells (JY cells; at concentrations active in the adhesion assay, measured after 20 hours): did not inhibit the proliferation of JY cells

Molecule: O=S(=O)(c1ccc2c(Cl)cccc2c1)N1CC2CC1CO2 (stereo not drawn) [Example 21, 5-(5-Chloro-2-naphthylsulfonyl)-2-oxa-5-azabicyclo-[2.2.1]heptane]
- IC50 [1]: 86 µM

Molecule: O=S(=O)(c1ccc2c(Cl)cccc2c1)N1CC2CC1CS2 (stereo not drawn) [Example 20, 5-(5-Chloro-2-naphthylsulfonyl-2-thia-5-azabicyclo-2.2.1]heptane]
- IC50 [1]: 6 µM

Molecule: O=C(O)C12CC3CC(CC(NS(=O)(=O)c4ccc5c(Cl)cccc5c4)(C3)C1)C2 [Example 24, 1-(5-Chloro-2-naphthylsulfonyl)-1-amino-3-adamantane-carboxylic acid]
- IC50 [1]: 136 µM

Molecule: O=S(=O)(c1cc(OCc2cccnc2)c2ccccc2c1)N1CC2CCC(CC2)C1 [Example 54, 3-[1-(3-Pyridinylmethoxy)-3-naphthylsulfonyl]-3-azabicyclo[3.2.2]nonane]
- IC50 [1]: 4.4 µM

Molecule: O=S(=O)(NC12CC3CC(CC(C3)C1)C2)c1ccc2ncccc2c1 [Example 30, 1-(6-Quinolinesulfonyl)-1-aminoadamantane]
- IC50 [1]: 23 µM

B1: soluble ICAM-1: soluble ICAM-1, specific inhibitor of rhinovirus infection (protein, UniProt P05362 28-480, looked up)
extracellular domain: QTSVSPSKVILPRGGSVLVTCSTSCDQPKLLGIETPLPKKELLLPGNNRKVYELSNVQEDSQPMCYSNCPDGQSTAKTFLTVYWTPERVELAPLPSWQPVGKNLTLRCQVEGGAPRANLTVVLLRGEKELKREPAVGEPAEVTTTVLVRRDHHGANFSCRTELDLRPQGLELFENTSAPYQLQTFVLPATPPQLVSPRVLEVDTQGTVVCSLDGLFPVSEAQVHLALGDQRLNPTVTYGNDSFSAKASVSVTAEDEGTQRLTCAVILGNQSQETLQTVTIYSFPAPNVILTKPEVSEGTEVTVKCEAHPRAKVTLNGVPAQPLGPRAQLLLKATPEDNGRSFSCSATLEVAGQLIHKNQTRELRVLYGPRLDERDCPGNWTWPENSQQTPMCQAWGNPLPELKCLKDGTFPLPIGESVTVTRDLEGTYLCRARSTQGEVTRKVTVNVLSPRYE
modifications: extracellular domain
- inhibition of rhinovirus infection (rhinovirus): act as specific inhibitor of rhinovirus infection
